Laboratory results published in the NIST ThermoML archive (doi:10.1021/je301279x).

What was measured:
[1] = Drop volume
[2] = xn = mol fraction of the nth substance listed; details: for surface tension liquid-gas: Drop volume; for mass density: 800 kPa, Liquid, Vibrating tube method

NCCO [2-aminoethan-1-ol]
[1]
Details | surface tension liquid-gas [mN/m]
293.15 K | 48.48
303.15 K | 47.64
313.15 K | 46.88

NCCO [2-aminoethan-1-ol] + O
[2]
Details | mass density, 303.15 K [kg/m3] | mass density, 313.15 K [kg/m3] | mass density, 323.15 K [kg/m3] | mass density, 333.15 K [kg/m3] | surface tension liquid-gas, 303.15 K [mN/m] | surface tension liquid-gas, 313.15 K [mN/m] | surface tension liquid-gas, 323.15 K [mN/m] | surface tension liquid-gas, 333.15 K [mN/m]
x1 = 0.0687 | 1003.6 | 999.4 | 994.6 | 989.1 | 66.7 | 65.2 | 63.6 | 61.6
x1 = 0.1122 | 1008.2 | 1003.3 | 998.1 | 992.3 | 63.7 | 62.4 | 61 | 59.5
x1 = 0.1643 | 1013.3 | 1007.8 | 1002.1 | 995.7 | 61.5 | 59.8 | 58.4 | 57
x1 = 0.2277 | 1017.8 | 1011.8 | 1005.4 | 998.7 | 59.6 | 58.1 | 56.5 | 55.1
x1 = 0.3067 | 1021.3 | 1014.6 | 1007.8 | 1000.6 | 57.4 | 56.1 | 55 | 53.6
x1 = 0.4076 | 1022.6 | 1015.5 | 1008.2 | 1000.6 | 54.5 | 53.6 | 52.5 | 51.2

O [water]
[1]
Details | surface tension liquid-gas [mN/m]
293.15 K | 72.56
303.15 K | 70.9
313.15 K | 69.81
323.15 K | 67.72
